The values that follow are results of earlier work, collected in article PMC8067507, “Aryl Urea Based Scaffolds for Multitarget Drug Discovery in Anticancer Immunotherapies” (Pharmaceuticals, 2021).

This series concerns all tested cell lines (HT-29, MCF-7, HeLa, A549, HMEC-1, HEK-293). Further details: method as in PMID 30878834. As to conditions: chlorophenyl derivatives of the previous study; read-out: IC50 values (range over cell lines); cited from earlier work.

On to `COc1ccc(/C=C/c2cccc(NC(=O)Nc3cccc(Cl)c3)c2)cc1` [Compound 5], for which the concentration for half-maximal inhibition (IC50) was 2000 to 11000 nM.

For the compound `COc1ccc(/C=C/c2cccc(NC(=O)Nc3ccc(Cl)cc3)c2)cc1` [Compound 6], the IC50 was 400 to 1800 nM.
